Experimental data as given in PubChem BioAssay AID743417 (Broad Institute, 2014).
Inconclusive results are not listed. The source made the active and inactive calls.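 Rule for the calls: active = compounds lowering the luciferase signal with a fitted half-maximal dose at most twice their top valid dose (cut at about 30 µM in these data); inconclusive = flat fits with moderate signal loss, or poor fits; inactive = the rest.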

Tested on: Clone20 osteoblast Shn3 3'UTR firefly luciferase, 24 h
Assay: Shn3 3'UTR reporter inhibitors, dose response, cell-based, Clone20 osteoblasts, luminescence, dry powder, set 2 (AID 743417)

Row | Compound | AC50
1 | Cc1ccc(-c2cn3cc(C)ccc3n2)cc1 | 1.32 µM
2 | CC(C)CCC(C(=O)O)C(C)CC(=O)NNC(=O)c1ccco1 (configuration not stated) | > 70 µM (inactive)
3 | Cc1ccc(S(=O)(=O)c2ncccc2[N+](=O)[O-])cc1 | 1.91 µM
4 | CCCCC(=O)NC(c1ccc(Cl)cc1Cl)c1ccc2cccnc2c1O (configuration not stated) | 0.67 µM
5 | CCCCNc1cc(C)nc(NCc2ccccc2)n1 | 0.719 µM
6 | CCCCNc1c(-c2ccc(OC)c(Sc3ccc(OC)cc3)c2)nc2ccccn12 | 0.821 µM
7 | Cc1ccc(-c2csc(N3CCC(NS(=O)(=O)c4ccc5c(c4)OCCO5)CC3)n2)cc1 | 2.15 µM
8 | CC(=O)N1c2ccc(S(=O)(=O)N3CCC(C(=O)N4CCN(c5cc(Cl)ccc5C)CC4)CC3)cc2CC1C (configuration not stated) | 3.1 µM
9 | CC(C)[C@H](NC(=O)OC(C)(C)C)c1nnc(S(=O)(=O)Cc2c(F)cccc2Cl)o1 | 1.08 µM
10 | COCCNc1nc(NCc2ccc(C(C)C)cc2)c2sccc2n1 | 3.95 µM
11 | Oc1ccccc1Nc1nc(NCc2ccccc2)c2ccccc2n1 | 10.7 µM
12 | COc1cc(NC(=O)COc2cc(O)c3c(c2)OC(C)(C)CC3=O)cc(OC)c1OC | 0.354 µM
13 | COc1ccccc1CNc1nc(NCC2CC2)nc2ccsc12 | 4.16 µM
14 | Cc1cc(C)c(S(=O)(=O)N2Cc3ccccc3-n3nncc3C2)c(C)c1 | 4.36 µM
15 | O=C(c1cccc(S(=O)(=O)N2CCN(c3ccccc3)CC2)c1)N1CCCC(C(F)(F)F)C1 (configuration not stated) | 2.68 µM
16 | C=CCNc1nc2c(c(=O)n(C)c(=O)n2C)n1CCCCCC | 0.761 µM
17 | CC(C)(C)c1nc(NCCN2CCOCC2)c2nnn(Cc3ccccc3Cl)c2n1 | 8.85 µM
18 | Cc1ccc(Nc2c(-c3ccccn3)nc3cccc(C)n23)cc1 | 1.9 µM
19 | Cc1[nH]nc2ccc(-c3cncc(OC[C@@H](N)Cc4c[nH]c5ccccc45)c3)cc12 | 1.77 µM
20 | Cc1ccc(Cn2ccc(=O)c(OCc3c(Cl)cccc3Cl)c2C)cc1 | 6.11 µM
21 | O=C(OCn1ncc(Cl)c(Cl)c1=O)c1cccc(C(F)(F)F)c1 | 3.74 µM
22 | NC1=NC[C@H](c2ccccc2)N1CCCCC1CCCCC1 | 4.23 µM

Row | Compound | AC50
23 | CC(=O)O[C@H]1CCC2C3CC[C@H]4[C@@H](O)[C@H](O)CC[C@]4(C)C3CC[C@@]21C (some centres not stated) | > 70 µM (inactive)
24 | COc1ccccc1-c1cc(C(F)(F)F)nc(S(=O)(=O)CCCC(=O)NCc2ccc(F)cc2)n1 | 4.43 µM
25 | CS(=O)(=O)c1ccc(Sc2nc3ccccc3s2)c([N+](=O)[O-])c1 | 9.73 µM
26 | O=C1C=CC(=O)N1CCNc1ncc(C(F)(F)F)cc1Cl | 0.947 µM
27 | CC(=O)NC(c1cccs1)c1cc(F)c2cccnc2c1O (configuration not stated) | 1.67 µM
28 | Cn1cnc([N+](=O)[O-])c1S(=O)(=O)Oc1ccccc1 | 3.83 µM
29 | COc1cccc(CNc2nc(NCC3CC3)nc3ccsc23)c1OC | 4.48 µM
30 | CCN(CC)CCNC(=O)CSc1c2c(nc3cc(Cl)ccc13)CCCC2 | 14.9 µM
31 | CC[C@@H](C)[C@H](CNC)NC[C@@H](Cc1cccc2ccccc12)NCCc1cccc(C(F)(F)F)c1 | 8.08 µM
32 | CCC(C)[C@H]1CNC(=S)N1CCc1cc(C(F)(F)F)cc(C(F)(F)F)c1 (some centres not stated) | 21.6 µM
33 | COc1cccc(-n2c(C)nc3c(cnn3-c3ccc(Cl)cc3)c2=O)c1 | 0.391 µM
34 | O=C(Nc1ccc2nc3n(c(=O)c2c1)CCCCC3)c1cc([N+](=O)[O-])ccc1F | 14.1 µM
35 | Cc1ccc(C(=O)Nc2cnc3ccccc3c2)cc1 | 4.04 µM
36 | COc1ccc(OC)c(NC(=O)COC(=O)c2c3c(nc4ccccc24)CCCC3)c1 | 8.67 µM
37 | O=C1C(=C(c2ccccc2)N2CCOCC2)Cc2ccccc21 | 0.999 µM
38 | C[C@@H]1CCCCO[C@H](CN(C)Cc2ccccc2)[C@@H](C)CN([C@H](C)CO)C(=O)c2cc(NC(=O)c3ccccc3)ccc2O1 | 31.3 µM
39 | CCN1C(=O)C(=Cc2cccc(OC)c2Oc2ccc([N+](=O)[O-])cc2[N+](=O)[O-])SC1=S | 1.89 µM
40 | CC(=O)OCCCNc1cc(Sc2nc3ccccc3s2)c2nonc2c1[N+](=O)[O-] | 4.7 µM
41 | COC(=O)C1=C(c2ccc(-c3ccccc3)c(F)c2)C[C@@H]2CC[C@H]1N2C(=O)N1CCCC1 | 6.06 µM
42 | Oc1cc(Nc2ccccc2)cc2cccnc12 | 1.79 µM
43 | COc1ccccc1Cc1c(-c2ccco2)nc2c(C)cc(Br)cn12 | 1.9 µM
44 | CCOc1cc(C)c(S(=O)(=O)Nc2ccc3cn[nH]c3c2)cc1C | 4.89 µM

Row | Compound | AC50
45 | Cc1nc2c(OCc3ccc(Cl)cc3Cl)cccn2c1N(C)CC1CC1 | 10 µM
46 | Cc1ccc(CS(=O)(=O)c2ncc(Cl)c(C(=O)Nc3nnc(C(C)C)s3)n2)cc1 | 1.52 µM
47 | COc1ccc(Nc2cc(C)nc(NCc3ccccc3)n2)cc1 | 3.9 µM
48 | Cc1ccc(S(=O)(=O)CCC(=O)OCC(=O)Nc2cc(S(=O)(=O)N3CCOCC3)ccc2C)cc1 | 17.8 µM
49 | O=C1OC[C@H](Cc2ccc3c(c2)OCO3)/C1=C\c1ccc2c(c1)OCO2 | 2.66 µM
50 | O=C(Nc1ccc(N2CCN(C(=O)c3ccco3)CC2)c(Cl)c1)c1cc2ccccc2o1 | 5 µM
51 | CC(C)(C)c1ccc(-n2ncc3c2CCCC3NC(=O)C2(C(N)=O)CC2)cc1 (configuration not stated) | 0.589 µM
52 | CCN(CC)S(=O)(=O)c1ccc(NC(=O)Nc2cccc(C(F)(F)F)c2)cc1 | 5.6 µM
53 | CCc1nnc(NC(=O)c2nc(S(=O)(=O)Cc3ccccc3)ncc2Cl)s1 | 2.72 µM
54 | CCN(CC)CCCNc1nc2ccccc2c2[nH]c3ccc(OC)cc3c12 | 12.3 µM
55 | Oc1c(CN2CCN(c3ccccc3)CC2)cc(Br)c2cccnc12 | 1.92 µM
56 | CCOc1ccc(CCN2C(=S)N([C@@H](CC(C)C)CN3CCCC3CN3C(=S)NC[C@@H]3Cc3ccc(O)cc3)C[C@@H]2Cc2ccc(O)cc2)cc1 (some centres not stated) | 11.5 µM
57 | COc1ccc(Cn2c(SCc3ccccc3C)nc3cc(OC)c(OC)cc3c2=N)cc1 | 5.46 µM
58 | CC(=O)NC(c1ccc(C)cc1)c1cc(Cl)c2cccnc2c1O (configuration not stated) | 2.12 µM
59 | Cn1nnnc1Sc1ncnc2scc(-c3ccc(Br)cc3)c12 | 0.334 µM
60 | CCOC(=O)N1CCC(NC(=O)C2CCCN(Cc3nc(-c4cccc(C)c4)oc3C)C2)CC1 (configuration not stated) | 3.06 µM
61 | CC(=O)c1cn(CCOc2cc(C)ccc2C)c2ccccc12 | 1.18 µM
62 | COc1ccc(CC(N)c2csc(NC(=O)Nc3cccc(C(F)(F)F)c3)n2)cc1 (configuration not stated) | 8.4 µM
63 | OCc1ccc(O)c2ncccc12 | 1.66 µM
64 | O=[N+]([O-])c1ccc2ncnc(N3CCN(Cc4ccc5c(c4)OCO5)CC3)c2c1 | 2.73 µM
65 | C=C1CC2(CC(c3ccccc3)OC(c3ccccc3)C2)OC1=O (configuration not stated) | 2.49 µM
66 | CC(C)c1ccc(NC(=O)Nc2nc(C(N)C3CCCCC3)cs2)cc1 (configuration not stated) | 7.29 µM

Row | Compound | AC50
67 | CC(Sc1nc2ccccc2c(=O)n1C)C(=O)NC1CCCCC1C (configuration not stated) | 3.46 µM
68 | CCCC(=O)NC(c1ccc(OC)cc1)c1ccc2cccnc2c1O (configuration not stated) | 1.18 µM
69 | Fc1ccc(C(OCCN2CCN(CCCc3ccccc3)CC2)c2ccc(F)cc2)cc1 | 6.17 µM
70 | CCn1c(=NC(=O)CS(=O)(=O)c2ccccc2)sc2cccc(OC)c21 | 1.68 µM
71 | CC(Nc1ncnc2ccccc12)c1ccccc1 (configuration not stated) | 0.355 µM
72 | COC(=O)/C=C/S(=O)(=O)c1ccc(NC(C)=O)cc1 | 7.3 µM
73 | S=C(NCc1ccc(Cl)cc1)Nc1ccncc1 | 1.5 µM
74 | Cc1c(C(=O)Nc2ccc(F)c(F)c2)oc2ccc(S(=O)(=O)N3CCCCC3)cc12 | 7.05 µM
75 | Cc1ccc(-n2ncc3c(N4CCN(c5ccc(F)cc5)CC4)ncnc32)c(C)c1 | 3.24 µM
76 | N=c1n(Cc2ccccc2)c2ccccc2n1CC(O)COc1ccc(Cl)cc1Cl (configuration not stated) | 2.89 µM
77 | Cc1cc(C)n(-c2ccc3cccc(NS(C)(=O)=O)c3n2)n1 | 1.32 µM
78 | Cc1ccc(Nc2c(-c3ccccn3)nc3ccc(C)cn23)cc1 | 1.74 µM
79 | COc1ccccc1/C=C1\CCCC2=C1Nc1nnnn1C2c1ccccc1OC (configuration not stated) | 36 µM
80 | NC(=O)CC(NC(=O)c1ccc(Br)cc1)c1ccc(N2CCCCCC2)c([N+](=O)[O-])c1 (configuration not stated) | 7.66 µM
81 | CSc1nc(N)nc2c1ncn2CC(=O)N1CCN(Cc2c(C)cc(C)cc2C)CC1 | 0.526 µM
82 | CCOC(=O)Cc1csc(SCC(=O)c2c(N)n(CC(C)C)c(=O)n(C)c2=O)n1 | 2.35 µM
83 | O=C(Nc1ccc(S(=O)(=O)N2CCCC2)cc1)c1ccc(CN2CCc3ccccc3C2)cc1 | 0.575 µM
84 | O=C(Nc1ccccc1)Nc1cc(OCC(F)(F)F)cc(OCC(F)(F)F)c1 | 6.4 µM
85 | COc1ccc(-c2cc(N)n(S(=O)(=O)c3c(F)c(F)c(F)c(F)c3F)n2)cc1OC | 0.896 µM
86 | COc1ccc(CCNc2ncnc3c2oc2ccccc23)cc1OC | 0.524 µM
87 | CCC(=O)c1cn(CC(=O)Nc2cccc(C)c2C)c2ccccc12 | 1.52 µM
88 | CN(CC(=O)Nc1cc(S(=O)(=O)N2CCCC2)ccc1Cl)Cc1ccc2c(c1)OCO2 | 13.1 µM

Row | Compound | AC50
89 | Cc1cc(=O)oc2c3c(cc(OCC(=O)Nc4ccc(CCO)cc4)c12)OC(C)(C)CC3 | > 70 µM (inactive)
90 | CCC(=O)c1cn(CC(=O)Nc2ccccc2Cl)c2ccccc12 | < 0.26 µM
91 | CC(C)c1ccc(NC(=O)Nc2nc(C(N)CCc3ccccc3)cs2)cc1 (configuration not stated) | 5.36 µM
92 | COc1cc(CSc2nnnn2-c2ccc(C)cc2)cc(OC)c1OC | 1.02 µM
93 | Cc1cc(Nc2ccccc2)nc(NCc2ccccc2)n1 | 1.04 µM
94 | Cc1ccc(C)c(N2CCN(C(=O)CCS(=O)(=O)c3ccc4c(c3)NC(=O)C(C)S4)CC2)c1 (configuration not stated) | 4.47 µM
95 | CCCCOCCCNc1ncnc2c1[nH]c1ccccc12 | 1.05 µM
96 | FC(F)(F)c1nnc(-c2ccccc2)nc1Sc1ccc(Cl)cc1 | 14.7 µM
97 | NC(Cc1ccc(Cl)cc1)c1csc(NC(=O)NCC2CCCCC2)n1 (configuration not stated) | 6.58 µM
98 | CCCc1nnc(NC(=O)c2nc(S(=O)(=O)Cc3cccc(C)c3)ncc2Cl)s1 | 2.55 µM
99 | COc1ccc(CNc2ncnc3c2[nH]c2ccccc23)cc1 | 4.19 µM
100 | COc1ccc(C)c2sc(N(CCCN(C)C)C(=O)c3ccc(S(=O)(=O)N4CCc5ccccc5C4)cc3)nc12 | 4.4 µM
101 | Cc1ccccc1CN1CC2=C(CCN(Cc3ccccc3)C2=O)N2CCN=C12 | 2.41 µM
102 | CCc1nnc(NC(=O)c2nc(S(=O)(=O)Cc3ccc(C)cc3)ncc2Cl)s1 | 3.01 µM
103 | C=C1C(=O)O[C@@H]2C[C@@H](C)[C@@H]3C=CC(=O)[C@@]3(C)[C@@H](O)[C@H]12 | 0.825 µM
104 | Oc1ccccc1C(Nc1nccs1)c1ccc2cccnc2c1O (configuration not stated) | 1.13 µM
105 | Cc1ccc([C@@H]2CC(=O)[C@@H]3CN(S(=O)(=O)c4ccccc4C)[C@H](c4ccc(Cl)cc4)C[C@@H]3N2S(=O)(=O)c2ccc(C)cc2)cc1 | 0.361 µM
106 | O=C(Nc1ccc([N+](=O)[O-])cc1)C(=O)Nc1cccc(C(=O)O)c1 | 4.21 µM
107 | Cc1c(C(=O)N(Cc2cccc(Br)c2)C2CCS(=O)(=O)C2)oc2ccccc12 (configuration not stated) | 35.9 µM
